{"source": "patent US20100098737A1", "about": "“METHODS AND COMPOSITIONS FOR DELIVERY OF GLYCOPEPTIDE ANTIBIOTICS TO MEDICAL DEVICE SURFACES” (priority 2008, published 2010)", "key": {"[1]": {"experiment": "binding assay: biotinylated synthetic peptide on streptavidin plate, titrated with biotinylated glycopeptide antibiotic", "description": "A typical binding assay for glycopeptide antibiotic was performed according to the following procedure. Briefly, synthetic peptides comprising an amino acid sequence to be characterized for binding were biotinylated to facilitate immobilization on streptavidin-coated 96-well plates. The microtiter plates were coated with streptavidin by adding 50 μl of a 10 μg/ml streptavidin solution in 0.1M NaHCO3, and incubating the plates for at least 3 hours. The plate wells were blocked by adding 150 μl of a 1% BSA solution in 0.1 NaHCO3 with incubation for at least 2 hours, and the plates were stored at 4° C. until needed. Before use, the streptavidin plates were washed extensively in buffer-T. Added per well was peptide (100 μl 0.1 μM peptide in buffer-T), and then incubated for 30 minutes at room temperature with shaking. 200 μl of 0.5 mM biotin in buffer-T was added to block the remaining streptavidin sites, and plates were incubated for 15 minutes at room temperature. Plates were then washed with buffer-T to remove the excess biotin and peptide. Serial dilutions of biotinylated glycopeptide antibiotic in buffer-T were added (100 μl) to each well, representing a range of concentrations between 100 pM and 100 μM. Plates were incubated for 30 minutes at room temperature with shaking prior to washing several times with buffer-T. Glycopeptide antibiotic was then detected by adding 100 μl of a diluted streptavidin-alkaline phosphatase conjugate to each well and incubated at room temperature for 30 minutes. Excess conjugate was removed by repeated washes with buffer-T, and the amount of alkaline phosphatase remaining in the well was detected using a pNPP (para-nitrophenylphosphate) colorimetric enzymatic assay. The relative amount of glycopeptide antibiotic captured by the peptides was determined by measuring the absorbance at 405 nm of the colored product of the alkaline phosphatase reaction. The EC50 was determined for each peptide relative to the binding affinity for the glycopeptide antibiotic used in the assay, as shown in Table 1 (with vancomycin as a representative glycopeptide antibiotic).\n(§1) A typical binding assay for glycopeptide antibiotic was performed according to the following procedure. The concentrations of the alkaline-phosphatase linked variant peptides were normalized to equal levels based on the alkaline-phosphatase activity as determined in a kinetic assay with the alkaline-phosphatase specific chromogenic substrate p-nitrophenyl phosphate (p-NPP). A streptavidin coated microtiter plate was coated with biotinylated vancomycin. Serial dilutions of normalized alkaline-phosphatase linked peptides were allowed to bind to the immobilized vancomycin and detected by addition of the alkaline-phosphatase specific chromogenic substrate p-NPP. Relative affinity for peptide binding to the immobilized vancomycin was determined by measuring the absorbance at 405 nm of the colored product of the alkaline phosphatase reaction. […] EC50 values for the synthetic peptides binding to vancomycin were determined as described in Example 1 and are shown in Table 3. Preferred are peptides that bind to glycopeptide antibiotic with binding affinity of EC50 of less than or equal to about 1 μM, and more preferably, in the nanomolar range (e.g., <0.1 μM)."}, "[2]": {"experiment": "binding of serially diluted alkaline-phosphatase linked peptides to immobilized biotinylated vancomycin", "details": "absorbance at 405 nm", "source_text": "From the peptide amino acid sequence […] (SEQ ID NO: 1) additional peptides were designed and expressed in the bacterial expression system described herein to further evaluate structure-function relationships. A truncated peptide comprising the amino acid sequence of SEQ ID NO:9 (STCLIDMYGVCH) was expressed and compared to a peptide comprising SEQ ID NO:1 for binding affinity for glycopeptide antibiotic. Also produced were a dimer of this truncated peptide (SEQ ID NO:10; […]), a D to A substitution (SEQ ID NO:11; STCLIAMYGVCH), a D to E substitution (SEQ ID NO:12; STCLIEMYGVCH), and a G to S substitution (SEQ ID NO:13; STCLIDMYSVCH). Relative binding strengths of these peptides and of other representative peptides to glycopeptide antibiotic were determined by EC50 values for binding to vancomycin or other glycopeptide antibiotic.\nas §1"}, "S. aureus": {"tested_on": "S. aureus", "experiment": "bacterial growth with loaded titanium beads, optical density at 600 nm", "format": "cell-based", "details": "peptide 10 μM + vancomycin 200 μM, 37° C. for 18 hours", "description": "In another experiment, antimicrobial activity of the peptide compositions was measured as follows. Titanium beads were placed into wells of a 96 well plate. To each well was added a 10 μM of peptide composition comprising at least one surface-binding peptide coupled to at least one glycopeptide antibiotic binding peptide and vancomycin at 200 μM. The appropriate negative controls were also included. The plate was incubated for 1 hour at 20° C., and then the wells and beads were washed 4 times with buffer. After washing, the beads were transferred to the well of a plate containing S. aureus in log phase growth and incubated at 37° C. for 18 hours. Bacterial growth was assessed by reading optical density at 600 nm."}, "[3]": {"tested_on": "Staphylococcus aureus strain MZ100", "experiment": "in vitro infection assay on titanium beads, colony counts", "format": "cell-based", "details": "peptide 5 μM + vancomycin 100 μM", "description": "To illustrate the antibacterial activity of the peptide compositions, an in vitro infection assay was performed. Briefly, a surface material was contacted with one of the peptide compositions such that the peptide binds to the surface material. The peptide composition can have glycopeptide antibiotic already bound thereto at the time of contacting the peptide with the surface material, or the glycopeptide antibiotic can be contacted with the peptide in a step subsequent to binding the peptide composition to the surface material. The surface material was washed to remove unbound glycopeptide antibiotic, and then contacted with bacterial cells (added from a culture in log phase growth) and incubated to promote bacterial growth. The surface material was washed, and any bacterial cells colonizing the surface material removed and plated to assess bacterial growth.\nIn one example, Staphylococcus aureus strain MZ100 was used as the representative bacterial cells. First, as a representative surface material, titanium beads were sterilized in acetone in a sonication bath, and then air dried in a sterile hood. The beads were individually placed in sterilized microfuge tubes (one bead per tube). […] The next day, the plates were examined for bacterial growth, and the number of bacterial colonies was quantified per plate."}, "vancomycin [4]": {"target": "vancomycin", "experiment": "competition on plates: immobilised biotinylated SEQ ID NO: 1 peptide, 20 nM biotinylated vancomycin, Lys-D-Ala-D-Ala titrated"}, "vancomycin [5]": {"target": "vancomycin", "experiment": "plate assay as in Example 1: synthetic peptide on streptavidin, biotinylated vancomycin titrated"}, "vancomycin [6]": {"target": "vancomycin", "experiment": "titanium beads with 10 µM peptide composition and 200 µM vancomycin, washed, vancomycin eluted with HCl and measured by HPLC"}, "vancomycin [7]": {"target": "vancomycin", "experiment": "plate assay: biotinylated peptide on streptavidin, biotinylated vancomycin titrated, streptavidin-AP detection"}, "[8]": {"details": "synthetic peptides binding to vancomycin, read-out: EC50, binding to glycopeptide antibiotic"}, "[9]": {"details": "synthetic peptides, biotinylated vancomycin, read-out: EC50 (μM) for vancomycin binding"}}, "note": "Like-named read-outs stand apart in the source and are kept apart here. *1 amine or outer side, *2 acyl side, *3 side chain or, on linkers, in order; H or OH if unused. Bridges are numbered along the chain shown (N, C = ends). Where no end group is shown, it is not given here. [ ]: non-standard residue; d: D form. (miniPEG)2 = linker of two miniPEG units, each HN-CH2CH2-O-CH2CH2-O-CH2-C(=O), O=C(COCCOCCN[*:1])NCCOCCOCC(=O)[*:2]"}
{"molecule": "PCELIDMFGNDHCP [compound 3]", "values": [{"measurement": "EC50", "setting": "[1]; [8]", "result": "< 0.1", "unit": "µM"}, {"measurement": "EC50", "setting": "[1]; [9]", "result": 0.82, "unit": "µM"}]}
{"molecule": "STCLIDMYGVCHSSCLIDMYGVCH [compound 10]", "values": [{"measurement": "EC50", "setting": "[1]; [8]", "result": "< 1", "unit": "µM"}, {"measurement": "glycopeptide antibiotic binding of alkaline-phosphatase linked peptides", "setting": "[2]", "result": "displayed glycopeptide antibiotic binding"}]}
{"molecule": "131 (SSCLIDIYGVCHNFDAY[(miniPEG)2]SSHRTNHKKNNPKKKNKTRGSSGK; disulfide 3-11 (inferred)) [compound 131]", "values": [{"measurement": "inhibition of bacterial growth (optical density at 600 nm)", "setting": "S. aureus", "result": "complete inhibition"}]}
{"molecule": "13 (STCLIDMYSVCH) [compound 13]", "values": [{"measurement": "glycopeptide antibiotic binding of alkaline-phosphatase linked peptides", "setting": "[2]", "result": "no detectable glycopeptide antibiotic binding"}]}
{"molecule": "SCDMLFCENFSGSGNNWFS [compound 4]", "values": [{"measurement": "EC50", "setting": "[1]; [9]", "result": 10, "unit": "µM"}]}
{"molecule": "NHTISKNHKKKNKNSNKTR [SEQ ID NO: 119]", "values": [{"measurement": "# of bacterial colonies", "setting": "[3]; 2 hour incubation", "result": 0}]}
{"molecule": "SLIDMYGVCHNFDGAYDS [compound 5]", "values": [{"measurement": "EC50", "setting": "[1]; [9]", "result": 10, "unit": "µM"}]}
{"molecule": "12 (STCLIEMYGVCH) [compound 12]", "values": [{"measurement": "glycopeptide antibiotic binding of alkaline-phosphatase linked peptides", "setting": "[2]", "result": "no detectable glycopeptide antibiotic binding"}]}
{"molecule": "130 (SSCLIDIYGVCHNFDAY[(miniPEG)2]HKKNNPKKKNKTRGSSK; disulfide 3-11 (inferred)) [compound 130]", "values": [{"measurement": "inhibition of bacterial growth (optical density at 600 nm)", "setting": "S. aureus", "result": "complete inhibition"}]}
{"molecule": "120 (H-SSSCLIDMYGVCHNFDGAYDSSRG[(miniPEG)2]SSHRTNHKKNNPKKKNKTRGSSGK-NH2; disulfide 4-12) [compound 120]", "values": [{"measurement": "inhibition of bacterial growth (optical density at 600 nm)", "setting": "S. aureus", "result": "complete inhibition"}]}
{"molecule": "CLFDIFGVCHSFDGAYDS [compound 2]", "values": [{"measurement": "EC50", "setting": "[1]; [8]", "result": "< 0.1", "unit": "µM"}, {"measurement": "EC50", "setting": "[1]; [9]", "result": 0.06, "unit": "µM"}]}
{"molecule": "Lys-D-Ala-D-Ala (peptide)", "values": [{"measurement": "IC50", "setting": "vancomycin [4]", "result": 10, "unit": "µM"}, {"measurement": "percent inhibition at 100 µM to 200 µM Lys-D-Ala-D-Ala", "setting": "vancomycin [4]", "result": 100, "unit": "%"}]}
{"molecule": "119 (NHTISKNHKKKNKNSNKTR) [compound 119]", "values": [{"measurement": "bacterial growth on the plates", "setting": "[3]", "result": "completely inhibited"}]}
{"molecule": "STCLIDMYGVCH [compound 9]", "values": [{"measurement": "EC50", "setting": "[1]; [8]", "result": "< 1", "unit": "µM"}, {"measurement": "glycopeptide antibiotic binding of alkaline-phosphatase linked peptides", "setting": "[2]", "result": "displayed glycopeptide antibiotic binding"}]}
{"molecule": "11 (STCLIAMYGVCH) [compound 11]", "values": [{"measurement": "glycopeptide antibiotic binding of alkaline-phosphatase linked peptides", "setting": "[2]", "result": "no detectable glycopeptide antibiotic binding"}]}
{"molecule": "STCLIDMYGVCH (cysteine pairing not given here; also: biotinylated, site not given here)", "note": "[synthetic peptide comprising SEQ ID NO: 9]", "values": [{"measurement": "EC50", "setting": "vancomycin [5]", "result": "< 1", "unit": "µM"}]}
{"molecule": "SSCLIDIYGVCHNFDAY[(miniPEG)2]SSHRTNHKKNNPKKKNKTRGSSGK (disulfide 3-11 (inferred))", "note": "[peptide composition SEQ ID NO: 131]", "values": [{"measurement": "Picomoles vancomycin/cm^2 (picomoles/cm^2)", "setting": "vancomycin [6]", "result": 76}]}
{"molecule": "SSCLIDIYGVCHNFDAY[(miniPEG)2]HKKNNPKKKNKTRGSSK (disulfide 3-11 (inferred))", "note": "[peptide composition SEQ ID NO: 130]", "values": [{"measurement": "Picomoles vancomycin/cm^2 (picomoles/cm^2)", "setting": "vancomycin [6]", "result": 83}]}
{"molecule": "CLFDIFGVCHSFDGAYDS (cysteine pairing not given here; also: biotinylated, site not given here)", "note": "[synthetic peptide comprising SEQ ID NO: 2]", "values": [{"measurement": "EC50", "setting": "vancomycin [5]", "result": "< 0.1", "unit": "µM"}, {"measurement": "EC50", "setting": "vancomycin [7]", "result": 0.06, "unit": "µM"}]}
{"molecule": "SLIDMYGVCHNFDGAYDS (also: biotinylated, site not given here)", "note": "[synthetic peptide comprising SEQ ID NO: 5]", "values": [{"measurement": "EC50", "setting": "vancomycin [7]", "result": 10, "unit": "µM"}]}
{"molecule": "SCDMLFCENFSGSGNNWFS (cysteine pairing not given here; also: biotinylated, site not given here)", "note": "[synthetic peptide comprising SEQ ID NO: 4]", "values": [{"measurement": "EC50", "setting": "vancomycin [7]", "result": 10, "unit": "µM"}]}
{"molecule": "PCELIDMFGNDHCP (cysteine pairing not given here; also: biotinylated, site not given here)", "note": "[synthetic peptide comprising SEQ ID NO: 3]", "values": [{"measurement": "EC50", "setting": "vancomycin [5]", "result": "< 0.1", "unit": "µM"}, {"measurement": "EC50", "setting": "vancomycin [7]", "result": 0.82, "unit": "µM"}]}
{"molecule": "STCLIDMYGVCHSSCLIDMYGVCH (cysteine pairing not given here; also: biotinylated, site not given here)", "note": "[synthetic peptide comprising SEQ ID NO: 10]", "values": [{"measurement": "EC50", "setting": "vancomycin [5]", "result": "< 1", "unit": "µM"}]}
{"molecule": "CLIDMYGVCHNFDGAYDS (cysteine pairing not given here; also: biotinylated, site not given here)", "note": "[synthetic peptide comprising SEQ ID NO: 1]", "values": [{"measurement": "EC50", "setting": "vancomycin [5]", "result": "< 0.1", "unit": "µM"}, {"measurement": "EC50", "setting": "vancomycin [7]", "result": 0.1, "unit": "µM"}]}
